# Source: the RepoRT retention time repository (doi:10.1016/j.chroma.2019.01.023)
# Experiment: HILIC, Merck SeQuant ZIC-pHILIC, 150 × 2.1 mm, 5 µm, 40 °C, 0.3 mL/min, estimated dead time 1.1 min; A: acetonitrile; B: water + 2.8 mM ammonium formate, pH 9; gradient (min/%B) 0/5 1/5 10/51 13/51 13.1/5 20/5
# Settings: stereoisomer not certain
row,Structure (SMILES),LC retention time
1,C[N+](C)(C)CCOP(=O)(O)OP(=O)([O-])OCC1OC(n2ccc(N)nc2=O)C(O)C1O (stereo unspecified) [CITICOLINE],8.89 min
2,O=CC[C@@H](O)[C@H](O)[C@H](O)CO [2-DEOXY-D-GLUCOSE],8.23 min
3,NC(=O)CCC(N)C(=O)O (stereo unspecified) [GLUTAMINE],9.03 min
4,NC(=O)CC(N)C(=O)O (stereo unspecified) [ASPARAGINE],9.25 min
5,NC(CS(=O)(=O)O)C(=O)O (stereo unspecified) [CYSTEATE],8.92 min
6,Cn1cnc(C[C@H](N)C(=O)O)c1 [1-METHYL-L-HISTIDINE],8.97 min
7,NC(N)=NC(CC(=O)O)C(=O)O (stereo unspecified) [GUANIDINOSUCCINATE],9 min
8,NC(N)=NCC(=O)O [GUANIDINOACETATE],9.05 min
9,O=C1CC(C(=O)[O-])NC(=O)N1 (stereo unspecified) [DIHYDROOROTATE],7.81 min
10,CN(CC(=O)O)C(=N)N [CREATINE],8.59 min
11,NC(CCCC(=O)O)C(=O)O (stereo unspecified) [AMINOADIPATE],8.78 min
12,NC(=O)NC1NC(=O)NC1=O (stereo unspecified) [ALLANTOIN],7.96 min
13,NC(N)=NCCCC(N)C(=O)O (stereo unspecified) [ARGININE],3.62 min
14,O=C(O)Cc1cnc[nH]1 [4-IMIDAZOLEACETATE],8.13 min
15,NC(=O)NCCCC(N)C(=O)O (stereo unspecified) [CITRULLINE],9.31 min
16,Cn1cncc1CC(NC(=O)CCN)C(=O)O (stereo unspecified) [ANSERINE],10.1 min

# Next, values leading:
row,LC retention time,Structure (SMILES)
1,8.28 min,CNC(CC(=O)O)C(=O)O (stereo unspecified) [N-METHYLASPARTATE]
2,9.1 min,NCCS(=O)(=O)O [TAURINE]
3,7.72 min,CC(C)C(N)C(=O)O (stereo unspecified) [VALINE]
4,8.91 min,NC(CCO)C(=O)O (stereo unspecified) [HOMOSERINE]
5,6.42 min,COC1OC(CO)C(O)C(O)C1O (stereo unspecified) [METHYL GALACTOSIDE]
6,9.47 min,OC1C(O)C(O)C(O)C(O)C1O (stereo unspecified) [MYOINOSITOL]
7,9.23 min,OCC1OC(OC2OC(CO)C(O)C(O)C2O)C(O)C(O)C1O (stereo unspecified) [TREHALOSE]
8,7.2 min,O=C1OC(C(O)CO)C(O)C1O [L-GULONOLACTONE]
9,6.4 min,NC(CSCC(=O)O)C(=O)O (stereo unspecified) [S-CARBOXYMETHYLCYSTEINE]
10,7.88 min,CC(=O)NC(CC(N)=O)C(=O)O (stereo unspecified) [N-ACETYLASPARAGINE]
11,7.56 min,CC(=O)NC(CO)C(=O)O (stereo unspecified) [N-ACETYLSERINE]
12,7.34 min,O=C([O-])c1cc(=O)[nH]c(=O)[nH]1 [OROTATE]
13,8.12 min,CNC(CCC(=O)O)C(=O)O (stereo unspecified) [N-METHYLGLUTAMATE]
14,7.67 min,O=C(O)C1CCCN1 (stereo unspecified) [PROLINE]

# Experiment: HILIC, Waters ACQUITY UPLC BEH Amide, 150 × 2.1 mm, 1.7 µm, 40 °C, 0.5 mL/min, estimated dead time 0.66 min; A: 5% water + 95% acetonitrile; B: 70% water + 30% acetonitrile + 10 mM ammonium formate, pH 6.5; gradient (min/%B) 0/0 2/0 20/70 23/70 24/0 31/0
# Settings: stereoisomer not certain
row,Structure (SMILES),LC retention time
1,C[N+](C)(C)CCOP(=O)(O)OP(=O)([O-])OCC1OC(n2ccc(N)nc2=O)C(O)C1O (stereo unspecified) [CITICOLINE],13.4 min
2,O=CC[C@@H](O)[C@H](O)[C@H](O)CO [2-DEOXY-D-GLUCOSE],4.02 min
3,NC(=O)CCC(N)C(=O)O (stereo unspecified) [GLUTAMINE],11 min
4,NC(=O)CC(N)C(=O)O (stereo unspecified) [ASPARAGINE],11.5 min
5,NC(CS(=O)(=O)O)C(=O)O (stereo unspecified) [CYSTEATE],10.8 min
6,Cn1cnc(C[C@H](N)C(=O)O)c1 [1-METHYL-L-HISTIDINE],13.2 min
7,NC(N)=NC(CC(=O)O)C(=O)O (stereo unspecified) [GUANIDINOSUCCINATE],10.3 min
8,NC(N)=NCC(=O)O [GUANIDINOACETATE],10.2 min
9,O=C1CC(C(=O)[O-])NC(=O)N1 (stereo unspecified) [DIHYDROOROTATE],7.2 min
10,CN(CC(=O)O)C(=N)N [CREATINE],9.87 min
11,NC(CCCC(=O)O)C(=O)O (stereo unspecified) [AMINOADIPATE],6.89 min
12,NC(=O)NC1NC(=O)NC1=O (stereo unspecified) [ALLANTOIN],4.85 min
13,NC(N)=NCCCC(N)C(=O)O (stereo unspecified) [ARGININE],14.2 min
14,O=C(O)Cc1cnc[nH]1 [4-IMIDAZOLEACETATE],9.86 min
15,NC(=O)NCCCC(N)C(=O)O (stereo unspecified) [CITRULLINE],11.3 min
16,Cn1cncc1CC(NC(=O)CCN)C(=O)O (stereo unspecified) [ANSERINE],12.5 min
17,COc1cc(CCN)ccc1O [3-METHOXYTYRAMINE],0.84 min
18,CC(=O)OCC[N+](C)(C)C [ACETYLCHOLINE],6.38 min
19,C[n+]1cccc(C(N)=O)c1 [1-METHYLNICOTINAMIDE],8.27 min
20,O=C1CCCCO1 [5-VALEROLACTONE],1.14 min
21,COc1ccccc1O [GUAIACOL],0.89 min

# Further lines, results first:
row,LC retention time,Structure (SMILES)
1,11.6 min,CNC(CC(=O)O)C(=O)O (stereo unspecified) [N-METHYLASPARTATE]
2,8.04 min,NCCS(=O)(=O)O [TAURINE]
3,8.75 min,CC(C)C(N)C(=O)O (stereo unspecified) [VALINE]
4,10.5 min,NC(CCO)C(=O)O (stereo unspecified) [HOMOSERINE]
5,4.01 min,COC1OC(CO)C(O)C(O)C1O (stereo unspecified) [METHYL GALACTOSIDE]
6,11 min,OC1C(O)C(O)C(O)C(O)C1O (stereo unspecified) [MYOINOSITOL]
7,11.3 min,OCC1OC(OC2OC(CO)C(O)C(O)C2O)C(O)C(O)C1O (stereo unspecified) [TREHALOSE]
8,3.12 min,O=C1OC(C(O)CO)C(O)C1O [L-GULONOLACTONE]
9,2.47 min,NC(CSCC(=O)O)C(=O)O (stereo unspecified) [S-CARBOXYMETHYLCYSTEINE]
10,8.1 min,CC(=O)NC(CC(N)=O)C(=O)O (stereo unspecified) [N-ACETYLASPARAGINE]
11,5.57 min,CC(=O)NC(CO)C(=O)O (stereo unspecified) [N-ACETYLSERINE]
12,3.49 min,O=C([O-])c1cc(=O)[nH]c(=O)[nH]1 [OROTATE]
13,11.1 min,CNC(CCC(=O)O)C(=O)O (stereo unspecified) [N-METHYLGLUTAMATE]
14,8.55 min,O=C(O)C1CCCN1 (stereo unspecified) [PROLINE]
15,0.83 min,"C[N+](C)(C)CCCCC(N)C(=O)O (stereo unspecified) [N,N,N-TRIMETHYLLYSINE]"
